From patent publication US5120782A, “Substituted pyrrolo-pyridines pharmaceuticals” (Bayer Aktiengesellschaft, priority 1990, dated 1992) come the findings set out here.

The target of the experiment is T1, 3-hydroxy-3-methyl-glutaryl-coenzyme A (HMG-CoA) reductase (Rattus norvegicus, UniProt P51639).
T1 construct: the livers were removed from the animals and placed on ice; from tissue; host or cells: liver of male Rico rats fed colestyramine; 100,000 g (microsomal) pellet, frozen at -78° C
T1 sequence (P51639 1-887): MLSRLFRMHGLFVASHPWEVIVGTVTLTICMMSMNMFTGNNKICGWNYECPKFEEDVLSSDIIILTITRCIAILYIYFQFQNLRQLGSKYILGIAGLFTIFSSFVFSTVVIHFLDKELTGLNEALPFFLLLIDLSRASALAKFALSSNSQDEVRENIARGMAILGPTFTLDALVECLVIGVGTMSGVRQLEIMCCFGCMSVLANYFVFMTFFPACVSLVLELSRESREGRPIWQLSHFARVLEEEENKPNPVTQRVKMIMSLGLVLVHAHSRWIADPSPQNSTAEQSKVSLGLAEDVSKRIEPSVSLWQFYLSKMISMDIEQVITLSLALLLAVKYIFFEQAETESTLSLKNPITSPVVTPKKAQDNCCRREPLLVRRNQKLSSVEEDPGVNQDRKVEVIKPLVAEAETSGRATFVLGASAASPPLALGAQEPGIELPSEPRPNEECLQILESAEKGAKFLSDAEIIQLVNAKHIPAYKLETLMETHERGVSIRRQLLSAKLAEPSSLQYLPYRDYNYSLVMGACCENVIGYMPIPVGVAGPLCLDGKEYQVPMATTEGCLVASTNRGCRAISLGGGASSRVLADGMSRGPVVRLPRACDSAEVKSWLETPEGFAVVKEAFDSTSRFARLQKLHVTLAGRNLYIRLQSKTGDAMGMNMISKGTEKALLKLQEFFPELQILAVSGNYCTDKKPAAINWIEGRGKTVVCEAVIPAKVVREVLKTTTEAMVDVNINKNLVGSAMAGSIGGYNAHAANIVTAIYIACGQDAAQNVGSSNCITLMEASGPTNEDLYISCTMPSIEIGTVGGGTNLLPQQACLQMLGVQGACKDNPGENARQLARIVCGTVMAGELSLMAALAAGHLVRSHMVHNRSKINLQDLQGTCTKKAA
The experiment in a line: enzyme activity determination, inhibition of HMG-CoA reductase relative to mevinolin. The conditions noted are these: relative inhibitory potency; IC50 of reference mevinolin set at 1 and compared with simultaneously determined IC50 of test compound; 20 min pre-incubation, 60 min at 37° C. Type of experiment: biochemical, Male Rico rats (liver). As to the method: The enzyme activity determination was carried out as modified by G. C. Ness et al., Archives of Biochemistry and Biophysics 197, 493-499 (1979). Male Rico rats (body weight 300-400 g) were treated with altromin powdered feed, to which 40 g of colestyramine/kg of feed had been added, for 11 days. After decapitation, the livers were removed from the animals and placed on ice. The livers were comminuted and homogenized 3 times in a Potter-Elvejem homogenizsr in 3 volumes of 0.1 M sucrose, 0.05 M KCl, 0.04 M Kx Hy phosphate, 0.03 M ethylene-diaminetetraacetic acid, 0.002 M dithiothreitol (SPE) buffer pH 7.2. The mixture was then centrifuged at 15,000 g for 15 minutes and the sediment was discarded. The supernatant was sedimented at 100,000 g for 75 minutes. The pellet was taken up in 1/4 volumes of SPE buffer, homogenized again and then centrifuged again at 100,000 g for 60 minutes. The pellet was taken up using a 5-fold amount of its volume of SPE buffer, homogenized and frozen and stored at -78° C. (=enzyme solution).
For testing, the test compounds (or mevinolin as a reference substance) were dissolved in dimethylformamide with the addition of 5 vol. % of 1 N NaOH and employed in the enzyme test using 10 μl in various concentrations. The test was begun after 20 minutes pre-incubation of the compounds with the enzyme at 37° C. The test mixture amounted to 0.380 ml and contained 4 μmol of glucose 6-phosphate, 1.1 mg of bovine serum albumin, 2.1 μmol of dithiothreitol, 0.35 μmol of NADP, 1 unit of glucose 6-phosphate dehydrogenase, 35 μmol of Kx Hy phosphate pH 7.2, 20 μl of enzyme preparation and 56 nmol of 3-hydroxy-3-methyl--glutaryl coenzyme A (glutaryl-3-^14 C) of 100,000 dpm.
After an incubation of 60 minutes at 37° C., the mixture was centrifuged and 600 μl of the supernatant was applied to a 0.7×4 cm column packed with a 5-chloride 100-200 mesh (anion exchanger). The column was washed with 2 ml of distilled water and 3 ml of Aquasol was added to the runnings plus washing water and counted in an LKB scintillation counter. IC50 values were determined by intrapolation by plotting the percentage inhibition against the concentration of the compound in the test. In order to determine the relative inhibitory potency, the IC50 value of the reference substance mevinolin was set at 1 and compared with the simultaneously determined IC50 value of the test compound.

Each structure is given as a SMILES string.

Turning to `COC(=O)C[C@H](O)C[C@H](O)/C=C/c1c(C(C)C)nc2[nH]ccc2c1-c1ccc(F)cc1` (relative stereo) [Example 1a, Methyl erythro-(E)-7-[4-(4-fluorophenyl)-6-isopropyl-1H-pyrrolo[2,3-b]pyridin-5-yl]3,5-dihydroxy-hept-6-enoate], the “in vitro relative activity (Mevinolin = 1)” value (from here on “in vitro relative activity”) is on record as 3.

Consider `COC(=O)C[C@H](O)C[C@H](O)/C=C/c1c(C(C)C)nc2c(ccn2C)c1-c1ccc(F)cc1` (relative stereo) [Example 1b], for which the “in vitro relative activity” value was 3.

Consider `COC(=O)C[C@H](O)C[C@H](O)/C=C/c1c(C(C)C)nc2c(ccn2C(C)C)c1-c1ccc(F)cc1` (relative stereo) [Example 1c], for which the “in vitro relative activity” value is reported as 13.

As to `COC(=O)C[C@H](O)C[C@H](O)/C=C/c1c(C(C)C)nc2c(ccn2CC#N)c1-c1ccc(F)cc1` (relative stereo) [Example 1d], the “in vitro relative activity” value came to 27.

Consider `C#CCn1ccc2c(-c3ccc(F)cc3)c(/C=C/[C@@H](O)C[C@@H](O)CC(=O)OC)c(C(C)C)nc21` (relative stereo) [Example 1e], for which the “in vitro relative activity” value is 17.

Take `COC(=O)C[C@H](O)C[C@H](O)/C=C/c1c(C(C)C)nc2c(ccn2CCc2ccccc2)c1-c1ccc(F)cc1` (relative stereo) [Example 1f]: the “in vitro relative activity” value is listed as 17.

Turning to `COC(=O)C[C@H](O)C[C@H](O)/C=C/c1c(C(C)C)nc2c(ccn2Cc2ccccc2)c1-c1ccc(F)cc1` (relative stereo) [Example 1g], the “in vitro relative activity” value worked out at 4.

With `C=CCn1ccc2c(-c3ccc(F)cc3)c(/C=C/[C@@H](O)C[C@@H](O)CC(=O)OC)c(C(C)C)nc21` (relative stereo) [Example 1h], the “in vitro relative activity” value came to 33.

On to `COC(=O)C[C@H](O)C[C@H](O)/C=C/c1c(C(C)C)nc2c(ccn2Cc2cccnc2)c1-c1ccc(F)cc1` (relative stereo) [Example 1i], for which the “in vitro relative activity” value is 9.

As for `COC(=O)C[C@H](O)C[C@H](O)/C=C/c1c(C(C)C)nc2c(ccn2CCC#N)c1-c1ccc(F)cc1` (relative stereo) [Example 1j], the “in vitro relative activity” value amounted to 24.

For `CC(C)c1nc2[nH]ccc2c(-c2ccc(F)cc2)c1/C=C/[C@@H](O)C[C@@H](O)CC(=O)O` (relative stereo) [Example 2a, Sodium erythro-(E)-7-[4-(4-fluorophenyl)-6-isopropyl-1H-pyrrolo[2,3-b]pyridin-5-yl]-3,5-dihydroxy-hept-6-enoate], the “in vitro relative activity” value was 3.

Take `CC(C)c1nc2c(ccn2C)c(-c2ccc(F)cc2)c1/C=C/[C@@H](O)C[C@@H](O)CC(=O)O` (relative stereo) [Example 2b]: the “in vitro relative activity” value amounted to 3.

Consider `CC(C)c1nc2c(ccn2C(C)C)c(-c2ccc(F)cc2)c1/C=C/[C@@H](O)C[C@@H](O)CC(=O)O` (relative stereo) [Example 2c], for which the “in vitro relative activity” value was found to be 3.

On to `CC(C)c1nc2c(ccn2CCc2ccccc2)c(-c2ccc(F)cc2)c1/C=C/[C@@H](O)C[C@@H](O)CC(=O)O` (relative stereo) [Example 2f], for which the “in vitro relative activity” value is 10.

As for `CC(C)c1nc2c(ccn2Cc2ccccc2)c(-c2ccc(F)cc2)c1/C=C/[C@@H](O)C[C@@H](O)CC(=O)O` (relative stereo) [Example 2g], the “in vitro relative activity” value turned out to be 2.

Turning to `C=CCn1ccc2c(-c3ccc(F)cc3)c(/C=C/[C@@H](O)C[C@@H](O)CC(=O)O)c(C(C)C)nc21` (relative stereo) [Example 2h], the “in vitro relative activity” value is listed as 10.
